We go through one sequence from patent US10016480B2, “Peptide-based methods for treating pancreatic cancer” (The United States of America, as represented by the …, priority 2014, dated 2018).

The nature of this series: Serum stability. Type of series: in vitro ADME.

No end group written: not given here.

For “FAKKFAKKFK [Peptide B, Phe-Ala-Lys-Lys-Phe-Ala-Lys-Lys-Phe-Lys]”, the stability in serum result is listed as “stable in serum”.
